Target: CFTR-mediated chloride transport (Homo sapiens, UniProt P13569)
Test: Corrector Assay A - membrane potential dye assay (enteroid cells)
Conditions: for Corrector Assay A % activity: % of chloride transport of triple combination control (1 μM (14S)-dispiro macrocycle + 3 μM tezacaftor + 300 nM ivacaftor); for EC50: read-out: Corrector Assay A EC50, human intestinal enteroid cells, 18-24 h incubation, acute 10 μM forskolin + 300 nM ivacaftor
Method: Base medium (ADF+++) consisted of Advanced DMEM/Ham's F12, 2 mM Glutamax, 10 mM HEPES, 1 μg/ml penicillin/streptomycin.
Intestinal enteroid maintenance medium (IEMM) consisted of ADF+++, 1×B27 supplement, 1×N2 supplement, 1.25 mM N-acetyl cysteine, 10 mM Nicotinamide, 50 ng/mL hEGF, 10 nM Gastrin, 1 μg/mL hR-spondin-1, 100 ng/mL hNoggin, TGF-b type 1 inhibitor A-83-01, 100 μg/mL Primocin, 10 μM P38 MAPK inhibitor SB202190.
Bath 1 Buffer consisted of 1 mM MgCl2, 160 mM NaCl, 4.5 mM KCl, 10 mM HEPES, 10 mM Glucose, 2 mM CaCl2).
Chloride Free Buffer consisted of 1 mM Magnesium Gluconate, 2 mM Calcium Gluconate, 4.5 mM Potassium Gluconate, 160 mM Sodium Gluconate, 10 mM HEPES, 10 mM Glucose.
Bath 1 Dye Solution consisted of Bath 1 Buffer, 0.04% Pluronic F127, 20 μM Methyl Oxonol, 30 μM CaCCinh-A01, 30 μM Chicago Sky Blue.
Chloride Free Dye Solution consisted of Chloride Free Buffer, 0.04% Pluronic F127, 20 μM Methyl Oxonol, 30 μM CaCCinh-A01, 30 μM Chicago Sky Blue.
Chloride Free Dye Stimulation Solution consisted of Chloride Free Dye Solution, 10 μM forskolin, 100 μM IBMX, and 300 nM Ivacaftor.
Cells were recovered in cell recovery solution, collected by centrifugation at 650 rpm for 5 min at 4° C., resuspended in TryPLE and incubated for 5 min at 37° C. Cells were then collected by centrifugation at 650 rpm for 5 min at 4° C. and resuspended in IEMM containing 10 μM ROCK inhibitor (RI). The cell suspension was passed through a 40 μm cell strainer and resuspended at 1×10^6 cells/mL in IEMM containing 10 μM RI. Cells were seeded at 5000 cells/well into multi-well plates and incubated for overnight at 37° C., 95% humidity and 5% CO2 prior to assay.
Briefly, cells were washed 5 times in Bath 1 Buffer. Bath 1 Dye Solution was added and the cells were incubated for 25 min at room temperature. Following dye incubation, cells were washed 3 times in Chloride Free Dye Solution. Chloride transport was initiated by addition of Chloride Free Dye Stimulation Solution and the fluorescence signal was read for 15 min. The CFTR-mediated chloride transport for each condition was determined from the AUC of the fluorescence response to acute forskolin and 300 nM N-[2,4-bis(1,1-dimethylethyl)-5-hydroxyphenyl]-1,4-dihydro-4-oxoquinoline-3-carboxamide stimulation. Chloride transport was then expressed as a percentage of the chloride transport following treatment with 1 μM (14S)-8-[3-(2-{Dispiro[2.0.2.1]heptan-7-yl}ethoxy)-1H-pyrazol-1-yl]-12,12-dimethyl-2λ^6-thia-3,9,11,18,23-pentaazatetracyclo[17.3.1.111,14.05,10]tetracosa-1(22),5,7,9,19(23),20-hexaene-2,2,4-trione, 3 μM (R)-1-(2,2-difluorobenzo[d][1,3]dioxol-5-yl)-N-(1-(2,3-dihydroxypropyl)-6-fluoro-2-(1-hydroxy-2-methylpropan-2-yl)-1H-indol-5-yl)cyclopropanecarboxamide and 300 nM acute N-[2,4-bis(1,1-dimethylethyl)-5-hydroxyphenyl]-1,4-dihydro-4-oxoquinoline-3-carboxamide triple combination control (% Activity).

Q: `CC(C)(C)NCc1ccnc([C@@H]2CC[C@@H]3CN(c4nc(C(C)(C)C)ccc4C(=O)NS(=O)(=O)c4cccc(n4)N2)C(C)(C)C3)c1` (single isomer, unassigned) [Compound 61] was tested. Which “Corrector Assay A % activity” value did it give?
A: The value was “+++ (+++ is >60%)”.

Q: What about the EC50 of the same molecule?
A: The EC50 was < 1000 nM.

Q: With `CC(C)(C)OC(=O)N1CCC2(CC1)CC(NC(=O)C1CC[C@@H]3CN(c4nc(C(C)(C)C)ccc4C(=O)NS(=O)(=O)c4cccc(n4)N1)C(C)(C)C3)C2` (single isomer, unassigned) [Compound 226] as the molecule, how does the “Corrector Assay A % activity” value read?
A: The value was “+++ (+++ is >60%)”.

Q: And the EC50?
A: The EC50 was < 1000 nM.

Q: Which results are given for `CCOc1cccc(-c2ccc3c(n2)N2C[C@@H](CC[C@@H](c4ccccn4)Nc4cccc(n4)S(=O)(=O)NC3=O)CC2(C)C)n1` [Compound 317]?
A: Corrector Assay A % activity: ++ (++ is 30-60%); EC50: < 1000 nM

Q: With `CC(C)(C)CCOc1cccc(-c2ccc3c(n2)N2C[C@@H](CC[C@H](c4cccc(C(F)(F)F)n4)Nc4cccc(n4)S(=O)(=O)NC3=O)CC2(C)C)n1` [Compound 304, (14S,17R)-8-[6-(3,3-dimethylbutoxy)pyridin-2-yl]-12,12-dimethyl-17-[6-(trifluoromethyl)pyridin-2-yl]-2λ^6-thia-3,9,11,18,23-pentaazatetracyclo[17.3.1.111,14.05,10]tetracosa-1(22),5,7,9,19(23),20-hexaene-2,2,4-trione] as the molecule, how does the “Corrector Assay A % activity” value read?
A: Its value is “++ (++ is 30-60%)”.

Q: And the EC50?
A: Its EC50 is < 1000 nM.

Q: For `CC(C)(C)c1ccc2c(n1)N1C[C@@H](CCC(c3ccc(Br)cn3)Nc3cccc(n3)S(=O)(=O)NC2=O)CC1(C)C` (single isomer, unassigned) [Compound 171], which “Corrector Assay A % activity” value is on record?
A: The value was “++ (++ is 30-60%)”.

Q: And the EC50?
A: The EC50 was < 1000 nM.

Q: What does the source list for `CC(C)(C)c1ccc2c(n1)N1C[C@@H](CCC(c3ccc(C4COC4)cn3)Nc3cccc(n3)S(=O)(=O)NC2=O)CC1(C)C` (stereo partly drawn) [Compound 29, (14S)-8-tert-butyl-12,12-dimethyl-17-[5-(oxetan-3-yl)pyridin-2-yl]-2λ^6-thia-3,9,11,18,23-pentaazatetracyclo[17.3.1.111,14.05,10]tetracosa-1(23),5(10),6,8,19,21-hexaene-2,2,4-trione]?
A: Corrector Assay A % activity: +++ (+++ is >60%); EC50: < 1000 nM

Q: How did the “Corrector Assay A % activity” value turn out when `CC(C)(C)c1ccc2c(n1)N1C[C@@H](CCC(c3ccc(-c4cc[nH]n4)cn3)Nc3cccc(n3)S(=O)(=O)NC2=O)CC1(C)C` (some centres unmarked) [Compound 130] was run?
A: The value was “+++ (+++ is >60%)”.

Q: And the EC50?
A: The EC50 was < 1000 nM.

Q: With `CC(C)(C)c1ccc2c(n1)N1C[C@@H](CCC(c3ncccc3Cl)Nc3cccc(n3)S(=O)(=O)NC2=O)CC1(C)C` (single isomer, unassigned) [Compound 66] as the molecule, how does the “Corrector Assay A % activity” value read?
A: The value was “+ (+ is <30%)”.

Q: And the EC50?
A: Its EC50 is > 3000 nM.

Q: With `CC(C)(C)c1ccc2c(n1)N1CC(CCCOc3cccc(c3)S(=O)(=O)NC2=O)CC1(C)C` (single isomer, unassigned) [Compound 256, 8-tert-butyl-12,12-dimethyl-18-oxa-2λ^6-thia-3,9,11-triazatetracyclo[17.3.1.111,14.05,10]tetracosa-1(22),5,7,9,19(23),20-hexaene-2,2,4-trione] as the molecule, how does the “Corrector Assay A % activity” value read?
A: The value was “++ (++ is 30-60%)”.

Q: And the EC50?
A: The EC50 was < 1000 nM.

Q: How did the “Corrector Assay A % activity” value turn out when `CC(C)(C)c1ccc2c(n1)N1C[C@@H](CC[C@@H](c3cccc(CCC#N)n3)Nc3cccc(n3)S(=O)(=O)NC2=O)CC1(C)C` [Compound 139] was run?
A: Its value is “+ (+ is <30%)”.

Q: What about the EC50 of the same molecule?
A: The EC50 was > 3000 nM.

Q: How did the “Corrector Assay A % activity” value turn out when `CC(C)(C)c1ccc2c(n1)N1C[C@@H](CCC(c3ccc(C4=CCOCC4)cn3)Nc3cccc(n3)S(=O)(=O)NC2=O)CC1(C)C` (some centres unmarked) [Compound 168] was run?
A: Its value is “+++ (+++ is >60%)”.

Q: And the EC50?
A: The EC50 was < 1000 nM.

Q: With `COC[C@@H]1CC[C@@H]2CN(c3nc(C(C)(C)C)ccc3C(=O)NS(=O)(=O)c3cccc(n3)N1)C(C)(C)C2` (single isomer, unassigned) [Compound 276] as the molecule, how does the “Corrector Assay A % activity” value read?
A: Its value is “++ (++ is 30-60%)”.

Q: What about the EC50 of the same molecule?
A: The EC50 was < 1000 nM.

Q: How did the “Corrector Assay A % activity” value turn out when `COC(=O)C1CC[C@@H]2CN(c3nc(C(C)(C)C)ccc3C(=O)NS(=O)(=O)c3cccc(n3)N1)C(C)(C)C2` (single isomer, unassigned) [Compound 225] was run?
A: Its value is “++ (++ is 30-60%)”.

Q: And the EC50?
A: The EC50 was < 1000 nM.

Q: `CC1(C)C[C@@H]2CC[C@H](c3ccccn3)Nc3cccc(n3)S(=O)(=O)NC(=O)c3ccc(C4=CCC(F)(F)CC4)nc3N1C2` [Compound 325, (14S,17R)-8-(4,4-Difluorocyclohex-1-en-1-yl)-12,12-dimethyl-17-(pyridin-2-yl)-2λ^6-thia-3,9,11,18,23-pentaazatetracyclo[17.3.1.111,14.05,10]tetracosa-1(22),5,7,9,19(23),20-hexaene-2,2,4-trione] was tested. Which “Corrector Assay A % activity” value did it give?
A: The value was “+++ (+++ is >60%)”.

Q: And the EC50?
A: The EC50 was < 1000 nM.

Q: `CC(C)=Cc1ccc(C2CC[C@@H]3CN(c4nc(C(C)(C)C)ccc4C(=O)NS(=O)(=O)c4cccc(n4)N2)C(C)(C)C3)nc1` (stereo partly drawn) [Compound 183, (14S)-8-tert-Butyl-12,12-dimethyl-17-[5-(2-methylprop-1-en-1-yl)pyridin-2-yl]-2λ^6-thia-3,9,11,18,23-pentaazatetracyclo[17.3.1.111,14.05,10]tetracosa-1(23),5(10),6,8,19,21-hexaene-2,2,4-trione] was tested. Which “Corrector Assay A % activity” value did it give?
A: Its value is “++ (++ is 30-60%)”.

Q: And the EC50?
A: Its EC50 is < 1000 nM.

Q: How did the “Corrector Assay A % activity” value turn out when `CN(C)CC(=O)N1CCC(C2CC[C@@H]3CN(c4nc(C(C)(C)C)ccc4C(=O)NS(=O)(=O)c4cccc(n4)N2)C(C)(C)C3)CC1` (stereo partly drawn) [Compound 236, (14S)-8-tert-butyl-17-{1-[2-(dimethylamino)acetyl]piperidin-4-yl}-12,12-dimethyl-2λ^6-thia-3,9,11,18,23-pentaazatetracyclo[17.3.1.111,14.05,10]tetracosa-1(23),5(10),6,8,19,21-hexaene-2,2,4-trione] was run?
A: The value was “++ (++ is 30-60%)”.

Q: What about the EC50 of the same molecule?
A: The EC50 was 1000 to 3000 nM.

Q: Which results are given for `CC(C)N(C(=O)CCCC1CC[C@@H]2CN(c3nc(C(C)(C)C)ccc3C(=O)NS(=O)(=O)c3cccc(n3)N1)C(C)(C)C2)C(C)C` (stereo partly drawn) [Compound 17, 4-[(14S)-8-tert-butyl-12,12-dimethyl-2,2,4-trioxo-2λ^6-thia-3,9,11,18,23-pentaazatetracyclo[17.3.1.111,14.05,10]tetracosa-1(23),5(10),6,8,19,21-hexaen-17-yl]-N,N-bis(propan-2-yl)butanamide]?
A: Corrector Assay A % activity: +++ (+++ is >60%); EC50: < 1000 nM

Q: Which results are given for `CC(C)(C)OC(=O)N1CCC2(CC1)CC(NC(=O)[C@@H]1CC[C@@H]3CN(c4nc(C(C)(C)C)ccc4C(=O)NS(=O)(=O)c4cccc(n4)N1)C(C)(C)C3)C2` [Compound 227]?
A: Corrector Assay A % activity: + (+ is <30%); EC50: 1000 to 3000 nM

Q: `Cn1ccc(C2CC[C@@H]3CN(c4nc(C(C)(C)C)ccc4C(=O)NS(=O)(=O)c4cccc(n4)N2)C(C)(C)C3)n1` (single isomer, unassigned) [Compound 278] was tested. Which “Corrector Assay A % activity” value did it give?
A: The value was “++ (++ is 30-60%)”.

Q: And the EC50?
A: Its EC50 is < 1000 nM.

Q: How did the “Corrector Assay A % activity” value turn out when `CC(C)(C)c1ccc2c(n1)N1C[C@@H](CCC(c3cc(Cl)ccn3)Nc3cccc(n3)S(=O)(=O)NC2=O)CC1(C)C` (single isomer, unassigned) [Compound 128] was run?
A: The value was “+++ (+++ is >60%)”.

Q: And the EC50?
A: Its EC50 is < 1000 nM.

Q: For `CC(C)(C)c1ccc2c(n1)N1C[C@@H](CCC(c3ccccc3)n3ccc(n3)S(=O)(=O)NC2=O)CC1(C)C` (single isomer, unassigned) [Compound 274], which “Corrector Assay A % activity” value is on record?
A: Its value is “++ (++ is 30-60%)”.

Q: What about the EC50 of the same molecule?
A: Its EC50 is < 1000 nM.

Q: Which results are given for `CC1(C)CC=C(c2ccc3c(n2)N2C[C@@H](CC[C@H](c4ccccn4)Nc4cccc(n4)S(=O)(=O)NC3=O)CC2(C)C)CC1` [Compound 327]?
A: Corrector Assay A % activity: +++ (+++ is >60%); EC50: < 1000 nM

Q: What does the source list for `CC(C)(C)c1ccc2c(n1)N1C[C@@H](CC[C@@H](c3cc(CCN)ccn3)Nc3cccc(n3)S(=O)(=O)NC2=O)CC1(C)C` (single isomer, unassigned) [Compound 85]?
A: Corrector Assay A % activity: ++ (++ is 30-60%); EC50: < 1000 nM

Q: What does the source list for `CC(C)(C)c1ccc2c(n1)N1CC(CCC(C(C)(C)O)Nc3cccc(n3)S(=O)(=O)NC2=O)CC1(C)C` (centres unmarked) [Compound 13]?
A: Corrector Assay A % activity: ++ (++ is 30-60%); EC50: < 1000 nM

Q: `CC(C)(C)c1ccc2c(n1)N1C[C@@H](CCC(c3ccc(N4CCCCC4)cn3)Nc3cccc(n3)S(=O)(=O)NC2=O)CC1(C)C` (some centres unmarked) [Compound 185] was tested. Which “Corrector Assay A % activity” value did it give?
A: Its value is “++ (++ is 30-60%)”.

Q: And the EC50?
A: Its EC50 is < 1000 nM.

Q: `CC(C)(C)c1ccc2c(n1)N1C[C@@H](CCC(CC(O)CO)Nc3cccc(n3)S(=O)(=O)NC2=O)CC1(C)C` (single isomer, unassigned) [Compound 33] was tested. Which “Corrector Assay A % activity” value did it give?
A: Its value is “+++ (+++ is >60%)”.

Q: And the EC50?
A: The EC50 was < 1000 nM.

Q: Which “Corrector Assay A % activity” value does the source give for `CC(C)(C)c1ccc2c(n1)N1C[C@@H](CCC(c3ccc(CCCN)cn3)Nc3cccc(n3)S(=O)(=O)NC2=O)CC1(C)C` (some centres unmarked) [Compound 137] here?
A: The value was “++ (++ is 30-60%)”.

Q: And the EC50?
A: Its EC50 is < 1000 nM.

Q: Which “Corrector Assay A % activity” value does the source give for `CC(C)Cc1ccc(C2CC[C@@H]3CN(c4nc(C(C)(C)C)ccc4C(=O)NS(=O)(=O)c4cccc(n4)N2)C(C)(C)C3)nc1` (stereo partly drawn) [Compound 181, (14S)-8-tert-butyl-12,12-dimethyl-17-[5-(2-methylpropyl)pyridin-2-yl]-2λ^6-thia-3,9,11,18,23-pentaazatetracyclo[17.3.1.111,14.05,10]tetracosa-1(23),5(10),6,8,19,21-hexaene-2,2,4-trione] here?
A: Its value is “++ (++ is 30-60%)”.

Q: What about the EC50 of the same molecule?
A: Its EC50 is < 1000 nM.

Q: With `CC1(C)C[C@@H]2CC[C@H](c3ccccn3)Nc3cccc(n3)S(=O)(=O)NC(=O)c3ccc(C4CCC4)nc3N1C2` [Compound 330, (14S,17R)-8-cyclobutyl-12,12-dimethyl-17-(pyridin-2-yl)-2λ^6-thia-3,9,11,18,23-pentaazatetracyclo[17.3.1.111,14.05,10]tetracosa-1(22),5,7,9,19(23),20-hexaene-2,2,4-trione] as the molecule, how does the “Corrector Assay A % activity” value read?
A: Its value is “+++ (+++ is >60%)”.

Q: And the EC50?
A: Its EC50 is < 1000 nM.

Q: `CC(C)Cc1ccc(C2CC[C@@H]3CN(c4nc(C(C)(C)C)ccc4C(=O)NS(=O)(=O)c4cccc(n4)N2)C(C)(C)C3)nc1` (some centres unmarked) [Compound 180] was tested. Which “Corrector Assay A % activity” value did it give?
A: Its value is “+++ (+++ is >60%)”.

Q: And the EC50?
A: The EC50 was < 1000 nM.

Q: Which results are given for `Cc1cccc2cc3c(nc12)N1C[C@@H](CCC(c2cc(C(C)(C)C)ccn2)Nc2cccc(n2)S(=O)(=O)NC3=O)CC1(C)C` (single isomer, unassigned) [Compound 4]?
A: Corrector Assay A % activity: ++ (++ is 30-60%); EC50: < 1000 nM
